# Assay results reported in patent publication US6858648B2, “Laetispicine and laetispicine analogues, methods of use and preparation” (Fudan University, priority 2002, dated 2005).
# Assays:
# mouse [1] = assay: Mouse acetic acid squirming method; type: in vivo; details: for inflammation and pain relieving effect compared with aspirin: 20 mg/kg each, mouse acetic acid squirming; for Squirming X ± SE: dose 20 mg/kg, 1 hour before 0.2 ml 1% acetic acid into abdominal cavity, squirmings counted over 10 minutes, male mice
# Excerpt: The pain and inflammation relieving effect of Laetispicine has been studied by the mouse acetic acid squirming method. In this study, 30 male mice were selected; each of them weighed 20 grams. These mice were divided randomly into 3 groups: Laetispicine group (10 mice), aspirin group (10 mice), and control group (10 mice). Laetispicine of 20 milligram/kilogram body weight in vehicle solution was given to each of the ten mice in Laetispicine group. For a positive control, aspirin of 20 milligram/kilogram body weight in vehicle solution was given to each of the ten mice in aspirin group. Vehicle solution only was given to ten mice in control group (negative control group). One hour later, each mouse was given 0.2 milliliter of 1% acetic acid solution by injection to its abdominal cavity. After the mouse squirmed first time, every squirming of each of the mouse was counted in a period of 10 minutes.
# mouse [2] = assay: Mouse forced swimming experiment; type: in vivo; details: for Motionless Time (sec.) X ± SE: 1 hour after dosing, recorded over 4 minutes after 2 minutes adaptation, 10 mice per group; for anti-depression effect compared with Fluoxetine (Prozac): mouse forced swimming, relative to Fluoxetine
# Excerpt: Mouse forced swimming experiment is by far the best animal model to screen anti-depression drugs. The experiment is designed to create a despaired situation for a mouse by confining the mouse in a container filled with water. Mouse in water will swim to safety. When the mouse cannot find a way out after it tried in the water in the container, it despaired of swimming. There is psychological difference of different mice in the situation. A calm mouse is still swimming and trying to find a way out of the container, while a despaired mouse swims relatively less (moves less). A depressed mouse despairs easily. The more depressed the mouse, the severer the despair.
# In this experiment, sixty mice were divided into 6 groups (10 mice in each group). (Referring to Table 1 and FIG. 2) Each mouse in experiment group 1 (Laetispicine 1) was given Laetispicine 50 milligram/kilogram body weight, each mouse in experiment group 2 (Laetispicine 2) was given Laetispicine 20 milligram/kilogram body weight, each mouse in experiment group 3 (Laetispicine 3) was given Laetispicine 10 milligram/kilogram body weight and each mouse in experiment group 4 (Laetispicine 4) was given Laetispicine 5 milligram/kilogram body weight. Fluoxetine (Prozac) was given 50 milligram/kilogram body weight to each mouse of positive control group (Fluoxetine), and placebo was given to each mouse of negative control group.
# After receiving the drugs (or placebo) 1 hour later, mice were put into a glass container with a long and narrow opening. The dimension of the container is 30 cm height, filled with water to 15 cm deep.
Structure (SMILES),inflammation and pain relieving effect compared with aspirin (mouse [1]),inflammation and pain relieving effect compared with aspirin (mouse [1]; listed as Lactispicine),Squirming X ± SE (mouse [1]),"effect on mouse depression (in words) (mouse [2]; Table 1 and FIG. 2, 5-50 mg/kg)",Motionless Time (sec.) X ± SE (mouse [2]; dose 5 mg/kg) [s],Motionless Time (sec.) X ± SE (mouse [2]; dose 10 mg/kg) [s],Motionless Time (sec.) X ± SE (mouse [2]; dose 20 mg/kg) [s],Motionless Time (sec.) X ± SE (mouse [2]; dose 50 mg/kg) [s],anti-depression effect compared with Fluoxetine (Prozac) (mouse [2]),anti-depression effect compared with Fluoxetine (Prozac) (mouse [2]; listed as Lactispicine) [times]
"CC(C)CNC(=O)/C=C/C=C/CCC/C=C/Cc1ccc2c(c1)OCO2 [Laetispicine, N-isobutyl-11-(3,4-methylendioxyphenyl)-2E,4E,9E-undecatrienamide]",equivalent to that of aspirin,equivalent to the effect of Aspirin,16.7 ± 4.92,significantly reduced the mouse depression,158.78 ± 5.13,131.0 ± 8.86,50.11 ± 12.69,17.67 ± 5.33,five times effective than that of Prozac,5
"CNCCC(Oc1ccc(C(F)(F)F)cc1)c1ccccc1 (stereo not drawn) [Fluoxetine, reference compound]",,,,,,,,113.44 ± 10.10,,
"CC(=O)Oc1ccccc1C(=O)O [Aspirin, reference compound]",,,16.8 ± 3.43,,,,,,,
